Test results reported in the supplement of paper PMC11208160.

Assay: recombinant UMI read abundance after kanamycin selection (control-corrected) (log10(CPM+1)); higher = more efficient recombination; extreme values may be limits of the assay; sequences stand for … in AGTGCAGAGAAAATCGGCCAGTTTTCTCTGCCTGCAGTCCGCATGCCGTGGGACCCCTTGGGTTCTAACCTGTTGCCTAGATTTATGCAGCGGACTGCCTTTCTCCCAAAGTGATAAACCGG…AGGTTGGTTTCACT; site = the 11-nt donor
Outline: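 Counts of recombinant UMIs were reported as log10(CPM+1). Before that, they were converted to CPM, averaged over replicates and scaled using control-derived factors. They came from PCR across the donor–target junction after Escherichia coli carrying the pair library and target plasmid was plated on IPTG (0.07 mM) plus kanamycin, or unselected, in two replicates each.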
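Note: IS621 bridge recombinase in Escherichia coli cells against a fixed T5 target plasmid.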

GTTGTTCCATGGACCGGTTTTCCCGGTAATCCGTATTTGGG (site GTTGTTCCTCC)
recombinant UMI read abundance (log10): 0.0029

GTTGTTCCATGGACCGGTTTTCCCGGTAATCCGTATTTGGG (site GTTGTTCCTGC)
recombinant UMI read abundance (log10): 0

GTTGTTCCATGGACCGGTTTTCCCGGTAATCCGTATTTGGG (site GTTGTTCCTTC)
recombinant UMI read abundance (log10): 0.00718

GTTTAACCATGGACCGGTTTTCCCGGTAATCCGTATTTGGT (site GTTTAACCTAC)
recombinant UMI read abundance (log10): 0.00474

GTTTACCCATGGACCGGTTTTCCCGGTAATCCGTATTTGGG (site GTTTACCCTCC)
recombinant UMI read abundance (log10): 0.00501

GTTTATTCATGGACCGGTTTTCCCGGTAATCCGTATTTGCT (site GTTTATTCTAG)
recombinant UMI read abundance (log10): 1.99

GTTTATTCATGGACCGGTTTTCCCGGTAATCCGTATTTGGT (site GTTTATTCTAC)
recombinant UMI read abundance (log10): 1.61

GTTTCGGCATGGACCGGTTTTCCCGGTAATCCGTATTTGGT (site GTTTCGGCTAC)
recombinant UMI read abundance (log10): 0.282

GTTTGCCCATGGACCGGTTTTCCCGGTAATCCGTATTTGAT (site GATTGCCCTAT)
recombinant UMI read abundance (log10): 0.00963

GTTTGCCCATGGACCGGTTTTCCCGGTAATCCGTATTTGAT (site GCTTGCCCTAT)
recombinant UMI read abundance (log10): 0.0198

GTTTGCCCATGGACCGGTTTTCCCGGTAATCCGTATTTGAT (site GGTTGCCCTAT)
recombinant UMI read abundance (log10): 0.018

GTTTGCCCATGGACCGGTTTTCCCGGTAATCCGTATTTGAT (site GTTTGCCCTAT)
recombinant UMI read abundance (log10): 0.0181

GTTTGCGCATGGACCGGTTTTCCCGGTAATCCGTATTTGTC (site GTTTGCGCTGA)
recombinant UMI read abundance (log10): 1.54

TAAACAACATGGACCGGTTTTCCCGGTAATCCGTATTTGTA (site TAAACAACTTA)
recombinant UMI read abundance (log10): 0.815

TAAACCACATGGACCGGTTTTCCCGGTAATCCGTATTTGAT (site TAAACCACTAT)
recombinant UMI read abundance (log10): 1.3

TAAAGTCCATGGACCGGTTTTCCCGGTAATCCGTATTTGCA (site TAAAGTCCTTA)
recombinant UMI read abundance (log10): 0.00275

TAAAGTCCATGGACCGGTTTTCCCGGTAATCCGTATTTGCA (site TAAAGTCCTTC)
recombinant UMI read abundance (log10): 0.00901

TAAAGTCCATGGACCGGTTTTCCCGGTAATCCGTATTTGCA (site TAAAGTCCTTG)
recombinant UMI read abundance (log10): 1.07

TAAAGTCCATGGACCGGTTTTCCCGGTAATCCGTATTTGCA (site TAAAGTCCTTT)
recombinant UMI read abundance (log10): 0

TAAAGTCCATGGACCGGTTTTCCCGGTAATCCGTATTTGTG (site TAAAGTCCTAA)
recombinant UMI read abundance (log10): 0.00597

TAAAGTCCATGGACCGGTTTTCCCGGTAATCCGTATTTGTG (site TAAAGTCCTCA)
recombinant UMI read abundance (log10): 0.64

TAAAGTCCATGGACCGGTTTTCCCGGTAATCCGTATTTGTG (site TAAAGTCCTGA)
recombinant UMI read abundance (log10): 0

TAAAGTCCATGGACCGGTTTTCCCGGTAATCCGTATTTGTG (site TAAAGTCCTTA)
recombinant UMI read abundance (log10): 0.19

TAAATTTCATGGACCGGTTTTCCCGGTAATCCGTATTTGCC (site TAAATTTCTGG)
recombinant UMI read abundance (log10): 0

TAACAATCATGGACCGGTTTTCCCGGTAATCCGTATTTGTC (site TAACAATCTGA)
recombinant UMI read abundance (log10): 2.03

TAACCTCCATGGACCGGTTTTCCCGGTAATCCGTATTTGAT (site TAACCTCCTAT)
recombinant UMI read abundance (log10): 0

TAACGCACATGGACCGGTTTTCCCGGTAATCCGTATTTGTA (site TAACGCACTTA)
recombinant UMI read abundance (log10): 1.61

TAACGTTCATGGACCGGTTTTCCCGGTAATCCGTATTTGCA (site TAACGTTCTTG)
recombinant UMI read abundance (log10): 1.75

TAACTGACATGGACCGGTTTTCCCGGTAATCCGTATTTGAT (site TAACTGACTAT)
recombinant UMI read abundance (log10): 1.54

TAACTGCCATGGACCGGTTTTCCCGGTAATCCGTATTTGTG (site TAACTGCCTCA)
recombinant UMI read abundance (log10): 0.00877

TAACTTACATGGACCGGTTTTCCCGGTAATCCGTATTTGGC (site TAACTTACTGC)
recombinant UMI read abundance (log10): 1.32

TAAGAATCATGGACCGGTTTTCCCGGTAATCCGTATTTGCG (site TAAGAATCTCG)
recombinant UMI read abundance (log10): 2.9

TAAGAATCATGGACCGGTTTTCCCGGTAATCCGTATTTGCG (site TACGAATCTCG)
recombinant UMI read abundance (log10): 1.95

TAAGAATCATGGACCGGTTTTCCCGGTAATCCGTATTTGCG (site TAGGAATCTCG)
recombinant UMI read abundance (log10): 2.51

TAAGAATCATGGACCGGTTTTCCCGGTAATCCGTATTTGCG (site TATGAATCTCG)
recombinant UMI read abundance (log10): 1.97

TAAGACTCATGGACCGGTTTTCCCGGTAATCCGTATTTGTC (site TAAGACTCTGA)
recombinant UMI read abundance (log10): 2.64

TAAGCCGCATGGACCGGTTTTCCCGGTAATCCGTATTTGCA (site GGGTTGCCTGA)
recombinant UMI read abundance (log10): 0

TAAGCTGCATGGACCGGTTTTCCCGGTAATCCGTATTTGAG (site TAAGCTGCTCT)
recombinant UMI read abundance (log10): 1.32

TAAGCTGCATGGACCGGTTTTCCCGGTAATCCGTATTTGCC (site TAAGCTGCTGG)
recombinant UMI read abundance (log10): 1.94

TAAGGTACATGGACCGGTTTTCCCGGTAATCCGTATTTGTA (site TAAGGTACTTA)
recombinant UMI read abundance (log10): 2.09

TAAGTTGCATGGACCGGTTTTCCCGGTAATCCGTATTTGTG (site TAAGTTGCTCA)
recombinant UMI read abundance (log10): 1.4

TAATAGTCATGGACCGGTTTTCCCGGTAATCCGTATTTGCG (site TAATAGTCTCG)
recombinant UMI read abundance (log10): 3.15

TAATCACCATGGACCGGTTTTCCCGGTAATCCGTATTTGAG (site TAATCACCTCT)
recombinant UMI read abundance (log10): 0.0222

TAATGACCATGGACCGGTTTTCCCGGTAATCCGTATTTGCC (site TAATGACCTGG)
recombinant UMI read abundance (log10): 0

TAATGACCATGGACCGGTTTTCCCGGTAATCCGTATTTGGG (site TAATGAACTCC)
recombinant UMI read abundance (log10): 0.00176

TAATGACCATGGACCGGTTTTCCCGGTAATCCGTATTTGGG (site TAATGACCTCC)
recombinant UMI read abundance (log10): 0.00316

TAATGACCATGGACCGGTTTTCCCGGTAATCCGTATTTGGG (site TAATGAGCTCC)
recombinant UMI read abundance (log10): 0.0136

TAATGACCATGGACCGGTTTTCCCGGTAATCCGTATTTGGG (site TAATGATCTCC)
recombinant UMI read abundance (log10): 0.00372

TAATGAGCATGGACCGGTTTTCCCGGTAATCCGTATTTGTG (site TAATGAGCTCA)
recombinant UMI read abundance (log10): 1.16

TAATGAGCATGGACCGGTTTTCCCGGTAATCCGTATTTGTG (site TAATGAGCTCC)
recombinant UMI read abundance (log10): 0.00287

TAATGAGCATGGACCGGTTTTCCCGGTAATCCGTATTTGTG (site TAATGAGCTCG)
recombinant UMI read abundance (log10): 1.54

TAATGAGCATGGACCGGTTTTCCCGGTAATCCGTATTTGTG (site TAATGAGCTCT)
recombinant UMI read abundance (log10): 0.133

TAATGTGCATGGACCGGTTTTCCCGGTAATCCGTATTTGGG (site TAATGAGCTCC)
recombinant UMI read abundance (log10): 0.0156

TAATGTGCATGGACCGGTTTTCCCGGTAATCCGTATTTGGG (site TAATGCGCTCC)
recombinant UMI read abundance (log10): 0.00475

TAATGTGCATGGACCGGTTTTCCCGGTAATCCGTATTTGGG (site TAATGGGCTCC)
recombinant UMI read abundance (log10): 0.00856

TAATGTGCATGGACCGGTTTTCCCGGTAATCCGTATTTGGG (site TAATGTGCTCC)
recombinant UMI read abundance (log10): 0.0867

TAATTGACATGGACCGGTTTTCCCGGTAATCCGTATTTGCT (site TAATTGACTAG)
recombinant UMI read abundance (log10): 2.35

TAATTGACATGGACCGGTTTTCCCGGTAATCCGTATTTGCT (site TACTTGACTAG)
recombinant UMI read abundance (log10): 1.17

TAATTGACATGGACCGGTTTTCCCGGTAATCCGTATTTGCT (site TAGTTGACTAG)
recombinant UMI read abundance (log10): 1.39

TAATTGACATGGACCGGTTTTCCCGGTAATCCGTATTTGCT (site TATTTGACTAG)
recombinant UMI read abundance (log10): 0.698

TACAACACATGGACCGGTTTTCCCGGTAATCCGTATTTGTG (site TACAACACTCA)
recombinant UMI read abundance (log10): 0.148

TACAATACATGGACCGGTTTTCCCGGTAATCCGTATTTGCA (site TAAAATACTTG)
recombinant UMI read abundance (log10): 0

TACAATACATGGACCGGTTTTCCCGGTAATCCGTATTTGCA (site TACAATACTTG)
recombinant UMI read abundance (log10): 1.18

TACAATACATGGACCGGTTTTCCCGGTAATCCGTATTTGCA (site TAGAATACTTG)
recombinant UMI read abundance (log10): 0

TACAATACATGGACCGGTTTTCCCGGTAATCCGTATTTGCA (site TATAATACTTG)
recombinant UMI read abundance (log10): 0

TACAATCCATGGACCGGTTTTCCCGGTAATCCGTATTTGAG (site TACAATCCTCT)
recombinant UMI read abundance (log10): 0.531

TACAGACCATGGACCGGTTTTCCCGGTAATCCGTATTTGTC (site TACAGACCTGA)
recombinant UMI read abundance (log10): 0

TACAGCGCATGGACCGGTTTTCCCGGTAATCCGTATTTGCG (site TACAGCGCTCG)
recombinant UMI read abundance (log10): 0.00572

TACAGGCCATGGACCGGTTTTCCCGGTAATCCGTATTTGCT (site TACAGGCCTAG)
recombinant UMI read abundance (log10): 0.00356

TACCACCCATGGACCGGTTTTCCCGGTAATCCGTATTTGCT (site TACCACCCTAG)
recombinant UMI read abundance (log10): 0.83

TACCCGCCATGGACCGGTTTTCCCGGTAATCCGTATTTGCG (site TACCCGCCTCG)
recombinant UMI read abundance (log10): 0.26

TACCCTTCATGGACCGGTTTTCCCGGTAATCCGTATTTGGT (site TAACCTTCTAC)
recombinant UMI read abundance (log10): 0.00354

TACCCTTCATGGACCGGTTTTCCCGGTAATCCGTATTTGGT (site TACCCTTCTAC)
recombinant UMI read abundance (log10): 0.56

TACCCTTCATGGACCGGTTTTCCCGGTAATCCGTATTTGGT (site TAGCCTTCTAC)
recombinant UMI read abundance (log10): 0.0115

TACCCTTCATGGACCGGTTTTCCCGGTAATCCGTATTTGGT (site TATCCTTCTAC)
recombinant UMI read abundance (log10): 0.00909
